#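 The compound was tested at five concentrations on cells cultured in 96-well plates, with a 48-hour exposure period. GI50 = concentration required for 50% inhibition of growth. TGI marks complete inhibition of growth.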
# How the values were obtained:
# Assay in all cases: DTP human tumour cell line panel, 48 h
# OVCAR-5 ovarian = system: OVCAR-5 ovarian
# UO-31 renal = system: UO-31 renal
# SK-MEL-5 melanoma = system: SK-MEL-5 melanoma
# HT29 colon = system: HT29 colon
# SF-539 CNS = system: SF-539 CNS
# T-47D breast = system: T-47D breast
# MDA-MB-231 breast = system: MDA-MB-231 breast
# HCT-116 colon = system: HCT-116 colon
# HL-60(TB) leukemia = system: HL-60(TB) leukemia
# RPMI-8226 leukemia = system: RPMI-8226 leukemia
# A498 renal = system: A498 renal
# CCRF-CEM leukemia = system: CCRF-CEM leukemia
# HOP-62 NSCLC = system: HOP-62 NSCLC
# M14 melanoma = system: M14 melanoma
# SK-OV-3 ovarian = system: SK-OV-3 ovarian
# HCT-15 colon = system: HCT-15 colon
# ACHN renal = system: ACHN renal
# MALME-3M melanoma = system: MALME-3M melanoma
# UACC-257 melanoma = system: UACC-257 melanoma
# 786-0 renal = system: 786-0 renal
# SF-268 CNS = system: SF-268 CNS
# BT-549 breast = system: BT-549 breast
# U251 CNS = system: U251 CNS
# NCI-H226 lung = system: NCI-H226 lung
# A549 NSCLC = system: A549 NSCLC
# TK-10 renal = system: TK-10 renal
# SR leukemia = system: SR leukemia
# SK-MEL-2 melanoma = system: SK-MEL-2 melanoma
# SF-295 CNS = system: SF-295 CNS
# SN12C renal = system: SN12C renal
# EKVX NSCLC = system: EKVX NSCLC
# OVCAR-4 ovarian = system: OVCAR-4 ovarian
# HS 578T breast = system: HS 578T breast
# NCI/ADR-RES ovarian = system: NCI/ADR-RES ovarian
# HOP-92 NSCLC = system: HOP-92 NSCLC
# NCI-H23 lung = system: NCI-H23 lung
# PC-3 prostate = system: PC-3 prostate
# KM12 colon = system: KM12 colon
# MOLT-4 leukemia = system: MOLT-4 leukemia
# HCC-2998 colon = system: HCC-2998 colon
# CAKI-1 renal = system: CAKI-1 renal
# LOX IMVI melanoma = system: LOX IMVI melanoma
# RXF 393 renal = system: RXF 393 renal
# SW-620 colon = system: SW-620 colon
# UACC-62 melanoma = system: UACC-62 melanoma
# MCF7 breast = system: MCF7 breast
# IGROV1 ovarian = system: IGROV1 ovarian
# NCI-H460 lung = system: NCI-H460 lung
# SNB-75 CNS = system: SNB-75 CNS
# OVCAR-3 ovarian = system: OVCAR-3 ovarian
# DU-145 prostate = system: DU-145 prostate
# NCI-H522 lung = system: NCI-H522 lung
# SK-MEL-28 melanoma = system: SK-MEL-28 melanoma
# K-562 leukemia = system: K-562 leukemia
# OVCAR-8 ovarian = system: OVCAR-8 ovarian
# SNB-19 CNS = system: SNB-19 CNS
# MDA-MB-435 = system: MDA-MB-435
compound,measurement,setting,value
CC1(C)CC[C@]2(C(=O)N3CCOCC3)CC[C@]3(C)C(=CC[C@@H]4[C@@]5(C)C/C(=C/c6ccncc6)C(=O)C(C)(C)[C@@H]5CC[C@]43C)[C@@H]2C1,GI50,OVCAR-5 ovarian,2.27 µM
same,TGI,OVCAR-5 ovarian,9.45 µM
same,GI50,UO-31 renal,0.893 µM
same,TGI,UO-31 renal,14.2 µM
same,GI50,SK-MEL-5 melanoma,1.48 µM
same,TGI,SK-MEL-5 melanoma,3.01 µM
same,GI50,HT29 colon,0.912 µM
same,TGI,HT29 colon,54.5 µM
same,GI50,SF-539 CNS,1.73 µM
same,TGI,SF-539 CNS,3.7 µM
same,GI50,T-47D breast,0.781 µM
same,TGI,T-47D breast,> 100 µM
same,GI50,MDA-MB-231 breast,3.06 µM
same,TGI,MDA-MB-231 breast,41.1 µM
same,GI50,HCT-116 colon,0.319 µM
same,TGI,HCT-116 colon,2 µM
same,GI50,HL-60(TB) leukemia,1.16 µM
same,TGI,HL-60(TB) leukemia,3.96 µM
same,GI50,RPMI-8226 leukemia,0.476 µM
same,TGI,RPMI-8226 leukemia,3.36 µM
same,GI50,A498 renal,1.83 µM
same,TGI,A498 renal,4.96 µM
same,GI50,CCRF-CEM leukemia,0.871 µM
same,TGI,CCRF-CEM leukemia,> 100 µM
same,GI50,HOP-62 NSCLC,1.76 µM
same,TGI,HOP-62 NSCLC,6.73 µM
same,GI50,M14 melanoma,1.41 µM
same,TGI,M14 melanoma,5.23 µM
same,GI50,SK-OV-3 ovarian,3.58 µM
same,TGI,SK-OV-3 ovarian,> 100 µM
same,GI50,HCT-15 colon,0.939 µM
same,TGI,HCT-15 colon,11 µM
same,GI50,ACHN renal,2.2 µM
same,TGI,ACHN renal,21.7 µM
same,GI50,MALME-3M melanoma,1.57 µM
same,TGI,MALME-3M melanoma,4.59 µM
same,GI50,UACC-257 melanoma,3.68 µM
same,TGI,UACC-257 melanoma,> 100 µM
same,GI50,786-0 renal,1.66 µM
same,TGI,786-0 renal,12.4 µM
same,GI50,SF-268 CNS,6.33 µM
same,TGI,SF-268 CNS,> 100 µM
same,GI50,BT-549 breast,1.39 µM
same,TGI,BT-549 breast,10 µM
same,GI50,U251 CNS,1.89 µM
same,TGI,U251 CNS,10.3 µM
same,GI50,NCI-H226 lung,2.09 µM
same,TGI,NCI-H226 lung,9.22 µM
same,GI50,A549 NSCLC,1.22 µM
same,TGI,A549 NSCLC,> 100 µM
same,GI50,TK-10 renal,6.46 µM
same,TGI,TK-10 renal,> 100 µM
same,GI50,SR leukemia,0.365 µM
same,TGI,SR leukemia,> 100 µM
same,GI50,SK-MEL-2 melanoma,2.33 µM
same,TGI,SK-MEL-2 melanoma,7.27 µM
same,GI50,SF-295 CNS,2.03 µM
same,TGI,SF-295 CNS,34.8 µM
same,GI50,SN12C renal,2.37 µM
same,TGI,SN12C renal,20.6 µM
same,GI50,EKVX NSCLC,2.87 µM
same,TGI,EKVX NSCLC,> 100 µM
same,GI50,OVCAR-4 ovarian,2.34 µM
same,TGI,OVCAR-4 ovarian,> 100 µM
same,GI50,HS 578T breast,2.56 µM
same,TGI,HS 578T breast,> 100 µM
same,GI50,NCI/ADR-RES ovarian,2.5 µM
same,TGI,NCI/ADR-RES ovarian,46.4 µM
same,GI50,HOP-92 NSCLC,0.0347 µM
same,TGI,HOP-92 NSCLC,11.6 µM
same,GI50,NCI-H23 lung,2.41 µM
same,TGI,NCI-H23 lung,> 100 µM
same,GI50,PC-3 prostate,0.375 µM
same,TGI,PC-3 prostate,46.1 µM
same,GI50,KM12 colon,2.7 µM
same,TGI,KM12 colon,> 100 µM
same,GI50,MOLT-4 leukemia,0.787 µM
same,TGI,MOLT-4 leukemia,> 100 µM
same,GI50,HCC-2998 colon,1.66 µM
same,TGI,HCC-2998 colon,7.82 µM
same,GI50,CAKI-1 renal,1.07 µM
same,TGI,CAKI-1 renal,> 100 µM
same,GI50,LOX IMVI melanoma,1.24 µM
same,TGI,LOX IMVI melanoma,2.72 µM
same,GI50,RXF 393 renal,1.22 µM
same,TGI,RXF 393 renal,3.03 µM
same,GI50,SW-620 colon,2.29 µM
same,TGI,SW-620 colon,> 100 µM
same,GI50,UACC-62 melanoma,1.36 µM
same,TGI,UACC-62 melanoma,40.9 µM
same,GI50,MCF7 breast,0.509 µM
same,TGI,MCF7 breast,15.3 µM
same,GI50,IGROV1 ovarian,3.09 µM
same,TGI,IGROV1 ovarian,> 100 µM
same,GI50,NCI-H460 lung,1.32 µM
same,TGI,NCI-H460 lung,4.17 µM
same,GI50,SNB-75 CNS,3.21 µM
same,TGI,SNB-75 CNS,> 100 µM
same,GI50,OVCAR-3 ovarian,2.06 µM
same,TGI,OVCAR-3 ovarian,> 100 µM
same,GI50,DU-145 prostate,2.77 µM
same,TGI,DU-145 prostate,36.5 µM
same,GI50,NCI-H522 lung,1.3 µM
same,TGI,NCI-H522 lung,6.72 µM
same,GI50,SK-MEL-28 melanoma,1.84 µM
same,TGI,SK-MEL-28 melanoma,5.41 µM
same,GI50,K-562 leukemia,0.637 µM
same,TGI,K-562 leukemia,> 100 µM
same,GI50,OVCAR-8 ovarian,3.52 µM
same,TGI,OVCAR-8 ovarian,> 100 µM
same,GI50,SNB-19 CNS,6.93 µM
same,TGI,SNB-19 CNS,27.7 µM
NC(CCCCNC(=O)CNC(=O)OCc1ccccc1)C(=O)NC(CCCCNC(=O)CNC(=O)OCc1ccccc1)C(=O)NC(CCCCNC(=O)CNC(=O)OCc1ccccc1)C(=O)NC(CCCCNC(=O)CNC(=O)OCc1ccccc1)C(=O)NC(CCCCNC(=O)CNC(=O)OCc1ccccc1)C(=O)NC(CCCCNC(=O)CNC(=O)OCc1ccccc1)C(=O)O (stereo not given),TGI,OVCAR-5 ovarian,> 75 µM
same,TGI,UO-31 renal,> 75 µM
same,TGI,SK-MEL-5 melanoma,> 75 µM
same,TGI,HT29 colon,> 75 µM
same,TGI,T-47D breast,> 75 µM
same,TGI,MDA-MB-435,> 75 µM
same,TGI,MDA-MB-231 breast,> 75 µM
same,TGI,HCT-116 colon,> 75 µM
same,TGI,HL-60(TB) leukemia,> 75 µM
same,TGI,RPMI-8226 leukemia,> 75 µM
same,TGI,A498 renal,> 75 µM
same,TGI,CCRF-CEM leukemia,> 75 µM
same,TGI,HOP-62 NSCLC,> 75 µM
same,TGI,M14 melanoma,> 75 µM
same,TGI,HCT-15 colon,> 75 µM
same,TGI,ACHN renal,> 75 µM
same,TGI,MALME-3M melanoma,> 75 µM
same,TGI,UACC-257 melanoma,> 75 µM
same,TGI,786-0 renal,> 75 µM
same,TGI,SF-268 CNS,> 75 µM
same,TGI,BT-549 breast,> 75 µM
same,TGI,U251 CNS,> 75 µM
same,TGI,NCI-H226 lung,> 75 µM
same,TGI,A549 NSCLC,> 75 µM
same,TGI,TK-10 renal,> 75 µM
same,TGI,SR leukemia,> 75 µM
same,TGI,SK-MEL-2 melanoma,> 75 µM
same,TGI,SN12C renal,> 75 µM
same,TGI,OVCAR-4 ovarian,> 75 µM
same,TGI,NCI-H23 lung,> 75 µM
same,TGI,PC-3 prostate,> 75 µM
same,TGI,MOLT-4 leukemia,> 75 µM
same,TGI,HCC-2998 colon,> 75 µM
same,TGI,CAKI-1 renal,> 75 µM
same,TGI,LOX IMVI melanoma,> 75 µM
same,TGI,SW-620 colon,> 75 µM
same,TGI,UACC-62 melanoma,> 75 µM
same,TGI,MCF7 breast,> 75 µM
same,TGI,IGROV1 ovarian,> 75 µM
same,TGI,NCI-H460 lung,> 75 µM
same,TGI,SNB-75 CNS,> 75 µM
same,TGI,OVCAR-3 ovarian,> 75 µM
same,TGI,DU-145 prostate,> 75 µM
same,TGI,NCI-H522 lung,> 75 µM
same,TGI,SK-MEL-28 melanoma,> 75 µM
same,TGI,K-562 leukemia,> 75 µM
same,TGI,OVCAR-8 ovarian,> 75 µM
same,TGI,SNB-19 CNS,> 75 µM

# Source: PubChem BioAssay (NCI)
